In patent EP2019109A1, “Trimetal-arene clusters with anticancer activity” (Université de Neuchâtel, priority 2007, dated 2009):

Columns and labels:
[1] = tested on: A2780cisR ovarian carcinoma cell line; assay: MTT assay, inhibition of cell viability; format: cell-based; conditions: for cytotoxic activity (in words): A2780cisR, statement drawn from Table 1; for IC50: cisplatin-resistant A2780cisR ovarian carcinoma cell line, 72 hours of incubation, MTT assay
Procedure: (§1) The effects of the clusters on the cancer cell growth were evaluated after an exposure period of 72 hours using the MTT [3-(4,5-dimethylthiazol-2-yl)-2,5-diphenyltetrazolium bromide] assay which measures mitochondrial dehydrogenase activity as an indication of cell viability. In addition, the dose-response curves for 1a and 1b against the two cell lines are illustrated in Figures 2a and 2b. Table 1. Inhibition of cell viability (IC50) of complexes on A2780 and A2780cisR ovarian carcinoma cell lines after 72 hours of incubation, determined using MTT assay.

[2] = tested on: A2780 ovarian carcinoma cell line; assay: MTT assay, inhibition of cell viability; format: cell-based; conditions: for cytotoxic activity (in words): A2780, statement drawn from Table 1; for IC50: A2780 ovarian carcinoma cell line, 72 hours of incubation, MTT assay
Procedure: as §1

Compound: [(η^6-C6H6)(η^6-1,4-^iPrC6H4Me)(η^6-C6Me6)Ru3(µ-H)3(µ3-O)][BF4] [Compound 1b]
- cytotoxic activity (in words) [1]: remarkably active
- IC50 [1]: 28.9 ± 2.8 µM
- cytotoxic activity (in words) [2]: remarkably active
- IC50 [2]: 9.1 ± 0.9 µM

Compound: [(η^6-C6H5Me)4Ru4(µ-H)4][BF4]2 [Compound 2b]
- IC50 [1]: > 100 µM
- IC50 [2]: > 100 µM

Compound: N.N.[Cl][Pt][Cl] [Cisplatin, reference compound]
- increase in cisplatin resistance ([1]; A2780cisR versus A2780): 6 fold
- IC50 [1]: 8.7 ± 1.6 µM
- IC50 [2]: 1.5 ± 0.3 µM

Compound: [(η^6-C6H6)4Ru4(µ-H)3(µ-OH)][Cl]2 [Compound 2c]
- IC50 [1]: > 100 µM
- IC50 [2]: > 100 µM

Compound: [(η^6-C6H6)(η^6-C6Me6)2Ru3(µ-H)3(µ3-O)][BF4] [Compound 1a]
- cytotoxic activity (in words) [1]: remarkably active
- IC50 [1]: 14.6 ± 0.7 µM
- cytotoxic activity (in words) [2]: remarkably active
- IC50 [2]: 9.8 ± 0.2 µM

Compound: Cc1ccc(C(C)C)cc1.[Cl][Ru]([Cl])[PH]12CN3CN(CN(C3)C1)C2 [RAPTA-C, reference compound]
- IC50 [1]: > 100 µM
- IC50 [2]: > 100 µM

Compound: [(η^6-C6H6)4Ru4(µ-H)4][BF4]2 [Compound 2a]
- IC50 [1]: > 100 µM
- IC50 [2]: > 100 µM
